# Like-named read-outs stand apart in the source and are kept apart here.
# How the values were obtained:
# [1] = system: Flow 1000 cells (foreskin cells); conditions: 25 mg/ml, 48 hours, 37° C.
# Protocol: (§1) Healthy confluent monolayer cell cultures were overlaid with 1 ml of the drug and incubated for 48 hours at 37° C. and then stained. Cell cultures with maintenance media were used as controls.
# Vero cells = conditions: 25 mg/ml, 48 hours, 37° C.
# Protocol: as §1
# RK-13 cells = conditions: 25 mg/ml, 48 hours, 37° C.
# Protocol: as §1
# HSV-1 (McKrae strain) [2] = conditions: 20 mg/ml
# Protocol: In experiment 1K, cultures were infected with the McKrae strain of HSV-1 at a high multiplicity of infection. […] At designated times, the cultures were harvested. The supernatant fluid and the cells were kept separate to assay for viruses released in the supernatant fluid and also that present in the cells. Both supernatant fluid and the cells were frozen immediately at -85° C. These samples were then assayed for infectious particles on susceptible cells.
# HSV-1 (McKrae strain) [3] = conditions: Virus and Drug (20 mg/ml)
# HSV-2 = system: HSV-2
# Protocol: Female guinea pigs (obtained from Charles River, Inc.) weighing approximately 200 g were used as a model for HSV-2 skin lesions. The animals were anesthetized with 0.15 ml of Ketamine-Rompum mixture. The animals were first shaved on their back with a hair clipper and then treated with a depilatory cream (Nair). The denuded area was washed well and then dried. A tuberculin tyne was washed with ethanol and air dried.
# Two methods were tried for infecting the animals with the virus. In one, a drop of HSV-2 suspension was placed on the skin and the skin was punctured with the tyne. In the second method, the tyne was dipped in the virus suspension before puncturing the skin.
# In the first experiment, each of 3 guinea pigs was infected on three areas of their backs. At 3 days post infection, treatment was begun on one side of each animal, leaving the other side untreated as a control.
# The animals were examined daily for vesicles (V), crust (C) and for erythema (R) alone.
# In the next experiment, 6 guinea pigs were infected in the same manner as the initial 3 guinea pigs. Treatment was begun 12-16 hours post infection. […] Lesions showing an erythematous base with either a blister or a crust on top were considered to be HSV specific. […] Both the control animals and treated animals were carefully read in the same manner.
# HSV-1 [4] = assay: microbe, parasite or virus in culture; conditions: read-out: % Reduction
# HSV-1 (F strain) = conditions: 2.5 mg/ml TEAC
# HSV-1 [5] = conditions: 20 mg/ml TEAC, virus control 1398
# [6] = system: herpes simplex virus (HSV types 1 and 2)
# HSV-1 (McKrae strain) [7] = conditions: for No. of Plaques: virus controls 270, 270, 252
# Protocol: All cultures were incubated at 37° C. in a 5% CO2 humidified atmosphere. The cultures were stained with crystal violet to aid in counting the plaque.
# HSV-1 (McKrae strain) [8] = system: HSV-1 (McKrae strain)
smiles,measurement,setting,value
"CC[N+](CC)(CC)CC.[Cl-] [TEAC, tetraethylammonium chloride]",drug related effects,"Patient A, 2.8 cc infusion",some blurred vision and slight dizziness on rising to the seated position
same,drug related effects,"Patient A, 3.2 cc infusion",some blurred vision
same,drug related effects,"Patient B, 3.7 cc (5 mg/kg) infusion","blurred vision, dryness of the mouth, and unsteady gait"
same,time to cessation of drug related effects,"Patient B, after cessation of infusion",10 to 15 min
same,drug related effects,"Patient C, 3.85 cc (5 mg/kg)",slightly blurred vision
same,drug related effects,"Patient D, 2.8 cc (5 mg/kg)",dry mouth and transient blurred vision
same,drug related effects,"Patient E, 4.8 cc (5 mg/kg)",slightly blurred vision
same,drug related effects,"Patient J, 3.6 cc (5.5 mg/kg)",some blurred vision
same,drug related effects,"Patient K, 3.1 cc and 3.4 cc",some blurred vision
same,drug related effects,"Patient L, 2.9 cc (5.5 mg/kg)",some blurred vision
same,time patient felt badly following treatment,"Patient L, 2.9 cc (5.5 mg/kg)",24 to 36 h
same,toxicity,[1],toxicity
same,toxicity,Vero cells,slight toxicity
same,toxicity,RK-13 cells,toxicity
same,"virus yield, supernatant","HSV-1 (McKrae strain) [2]; 6 hours P.I., dilution 10^-1, control 3",0 PFU/m
same,"virus yield, cell","HSV-1 (McKrae strain) [2]; 6 hours P.I., dilution 10^-1, control 7",2 PFU/m
same,"virus yield, supernatant","HSV-1 (McKrae strain) [2]; 6 hours P.I., dilution 10^-2, control 1",0 PFU/m
same,"virus yield, cell","HSV-1 (McKrae strain) [2]; 6 hours P.I., dilution 10^-2, control 7",5 PFU/m
same,"virus yield, supernatant","HSV-1 (McKrae strain) [2]; 6 hours P.I., dilution 10^-3, control 0",0 PFU/m
same,"virus yield, cell","HSV-1 (McKrae strain) [2]; 6 hours P.I., undiluted (Und.), control 16",12 PFU/m
same,"virus yield, cell","HSV-1 (McKrae strain) [2]; 10 hours P.I., dilution 10^-1, control 12",3 PFU/m
same,"virus yield, supernatant","HSV-1 (McKrae strain) [2]; 10 hours P.I., dilution 10^-1, control 22",0 PFU/m
same,"virus yield, cell","HSV-1 (McKrae strain) [2]; 10 hours P.I., dilution 10^-2, control 2",0 PFU/m
same,"virus yield, supernatant","HSV-1 (McKrae strain) [2]; 10 hours P.I., dilution 10^-2, control 7",0 PFU/m
same,"virus yield, supernatant","HSV-1 (McKrae strain) [2]; 10 hours P.I., dilution 10^-3, control 0",0 PFU/m
same,"virus yield, cell","HSV-1 (McKrae strain) [2]; 10 hours P.I., undiluted (Und.), control 48",13 PFU/m
same,"virus yield, supernatant","HSV-1 (McKrae strain) [2]; 20 hours P.I., dilution 10^-1, control 91",0 PFU/m
same,"virus yield, cell","HSV-1 (McKrae strain) [2]; 20 hours P.I., dilution 10^-1, control W.O. (wiped out)",5 PFU/m
same,"virus yield, supernatant","HSV-1 (McKrae strain) [2]; 20 hours P.I., dilution 10^-2, control 10",0 PFU/m
same,"virus yield, cell","HSV-1 (McKrae strain) [2]; 20 hours P.I., dilution 10^-2, control W.O. (wiped out)",0 PFU/m
same,"virus yield, supernatant","HSV-1 (McKrae strain) [2]; 20 hours P.I., dilution 10^-3, control 0",0 PFU/m
same,"virus yield, cell","HSV-1 (McKrae strain) [2]; 20 hours P.I., undiluted (Und.), control W.O. (wiped out)",42 PFU/m
same,"virus yield, supernatant","HSV-1 (McKrae strain) [2]; 24 hours P.I., dilution 10^-1, control 107",0 PFU/m
same,"virus yield, cell","HSV-1 (McKrae strain) [2]; 24 hours P.I., dilution 10^-1, control W.O. (wiped out)",32 PFU/m
same,"virus yield, supernatant","HSV-1 (McKrae strain) [2]; 24 hours P.I., dilution 10^-2, control 18",0 PFU/m
same,"virus yield, cell","HSV-1 (McKrae strain) [2]; 24 hours P.I., dilution 10^-2, control W.O. (wiped out)",10 PFU/m
same,"virus yield, supernatant","HSV-1 (McKrae strain) [2]; 24 hours P.I., dilution 10^-3, control 2",0 PFU/m
same,"virus yield, cell","HSV-1 (McKrae strain) [2]; 24 hours P.I., undiluted (Und.), control W.O. (wiped out)",58 PFU/m
same,"virus yield, supernatant","HSV-1 (McKrae strain) [2]; 28 hours P.I., dilution 10^-1, control 190",0 PFU/m
same,"virus yield, cell","HSV-1 (McKrae strain) [2]; 28 hours P.I., dilution 10^-1, control W.O.",TMTC
same,"virus yield, supernatant","HSV-1 (McKrae strain) [2]; 28 hours P.I., dilution 10^-2, control 58",0 PFU/m
same,"virus yield, cell","HSV-1 (McKrae strain) [2]; 28 hours P.I., dilution 10^-2, control W.O. (wiped out)",15 PFU/m
same,"virus yield, supernatant","HSV-1 (McKrae strain) [2]; 28 hours P.I., dilution 10^-3, control 7",0 PFU/m
same,"virus yield, cell","HSV-1 (McKrae strain) [2]; 28 hours P.I., undiluted (Und.), control W.O.",W.O.
same,"cells exhibiting CPE, area of infection per field","HSV-1 (McKrae strain) [3]; 6 hours P.I., virus control 1/4",1/6
same,"cells exhibiting CPE, area of infection per field","HSV-1 (McKrae strain) [3]; 30 hours P.I., virus control 1/2",scattered
same,number and size of lesions,HSV-2; TEAC from 12-16 hours P.I.,"significant reduction in the number of lesions, but also in their size"
same,rupture and crusting of lesions,HSV-2; TEAC from 12-16 hours P.I.,the lesions neither ruptured nor crusted
same,"number and appearance of lesions, treated vs control",HSV-2; TEAC ointment from 12-16 hours P.I.,"marked difference between the two groups, not only in the number of lesions but also in their appearance"
same,Percent Reduction of lesions,"HSV-2; TEAC ointment from 12-16 hours P.I., day 3 P.I.",21.0%
same,# of lesions,"HSV-2; TEAC ointment from 12-16 hours P.I., day 3 P.I., control 19",15 lesions
same,Percent Reduction of lesions,"HSV-2; TEAC ointment from 12-16 hours P.I., day 4 P.I.",27.5%
same,# of lesions,"HSV-2; TEAC ointment from 12-16 hours P.I., day 4 P.I., control 40",29 lesions
same,Percent Reduction of lesions,"HSV-2; TEAC ointment from 12-16 hours P.I., day 5 P.I.",58.5%
same,# of lesions,"HSV-2; TEAC ointment from 12-16 hours P.I., day 5 P.I., control 41",17 lesions
same,Percent Reduction of lesions,"HSV-2; TEAC ointment from 12-16 hours P.I., day 6 P.I.",58.3%
same,# of lesions,"HSV-2; TEAC ointment from 12-16 hours P.I., day 6 P.I., control 36",15 lesions
same,dermatitis (rash),"HSV-2; day 4 after treatment, TEAC or its vehicle or both",a rash appeared
same,inhibition at 20000 µg/mL,"HSV-1 [4]; Human alphaherpesvirus 1, 4 h",25%
same,inhibition at 20000 µg/mL,"HSV-1 [4]; Human alphaherpesvirus 1, 6 h",57%
same,inhibition at 20000 µg/mL,"HSV-1 [4]; Human alphaherpesvirus 1, 8 h",69%
same,inhibition at 20000 µg/mL,"HSV-1 [4]; Human alphaherpesvirus 1, 10 h",88%
same,size of the plaque vs control,HSV-1 (F strain),appreciably smaller
same,average number of plaque,"HSV-1 (F strain); 1 ml + 4 ml media, after adsorption, control 488.5",75.5 plaque
same,PFU/ml,HSV-1 [5]; removed 4 hours P.I.,1042 PFU/ml
same,PFU/ml,HSV-1 [5]; removed 6 hours P.I.,596 PFU/ml
same,PFU/ml,HSV-1 [5]; removed 8 hours P.I.,436 PFU/ml
same,PFU/ml,HSV-1 [5]; removed 10 hours P.I.,163 PFU/ml
same,attacks,"[6]; Patient B, about a month after report on fourth infusion",no more attacks
same,recurrences,"[6]; Patient B, after third infusion",recurrences were not eliminated
same,resolution of oral lesions,"[6]; Patient B, first infusion 3.7 cc (5 mg/kg)",resolution occurring in a shorter than usual time
same,value of last treatment,"[6]; Patient B, fourth infusion 4.8 cc",of no value
same,aura and expected labial lesion,"[6]; Patient B, second infusion 3.7 cc, following day",absence of an aura and no occurrence of the expected lesion except for a very small lesion at the corner of the mouth
same,time to disappearance of penile lesion,"[6]; Patient B, third infusion 4.5 cc",2 to 3 days
same,long term outcome,"[6]; Patient C, five months and ten months after initial treatment",no further problems
same,infection,"[6]; Patient I, first infusion 4.7 cc, four to five days later",they were all clear
same,time to clearing of lesion,"[6]; Patient I, second infusion 4.75 cc (5.5 mg/kg)",3 days
same,nocturnal headaches,"[6]; Patient I, three months after second infusion",no further nocturnal headaches
same,No. of Plaques,HSV-1 (McKrae strain) [7]; 3.125 mg/ml,247
same,No. of Plaques,HSV-1 (McKrae strain) [7]; 6.250 mg/ml,286
same,No. of Plaques,HSV-1 (McKrae strain) [7]; 12.500 mg/ml,300
same,appearance of monolayer,HSV-1 (McKrae strain) [7]; 25 mg/ml,thinned out appearance
same,No. of Plaques,HSV-1 (McKrae strain) [7]; 25.000 mg/ml,0
same,effectiveness in plaque inhibition,HSV-1 (McKrae strain) [7]; concentrations below 25 mg/ml,not significantly effective in achieving plaque inhibition
same,crusting,"HSV type 1; Patient L, 2.9 cc (5.5 mg/kg), 7th day after treatment",the crusting had all disappeared
same,time to clearing of lesions,"HSV type 1; Patient M, 1% TEAC in hydrophillic ointment base, topical, five days later",cleared in a shorter time period than usual
same,lesion,"HSV type 1; Patient M, ointment resumed two months later, after three days",the lesion had not spread and had now crusted
same,appearance of cell layers,vaccinia,thin
same,plaque,vaccinia,did not have any plaque
same,number of cells containing intranuclear dense bodies vs control,HSV-1 (McKrae strain) [8]; 6 hours post infection,no striking difference
same,No. of cells with internuclear dense bodies,"HSV-1 (McKrae strain) [8]; TEAC treated, 24 hours P.I., 300 cells examined, control 0 of 50",12
same,No. of cells with virus particles,"HSV-1 (McKrae strain) [8]; TEAC treated, 24 hours P.I., 300 cells examined, control 50 of 50",8
same,Total %,"HSV-1 (McKrae strain) [8]; TEAC treated, 24 hours P.I., control 100%",6%
same,size of nucleocapsids,"HSV-1 (McKrae strain) [8]; TEAC-treated cells, 24 hours post infection",about 99.6 A
